Here are results for 1 molecule from patent US20090280067A1, “CRYSTAL FORM OF 8-HYDROXY-5-[(1R)-1-HYDROXY-2-[[(1R)-2-(4-METHOXYPHENYL)-1-METHYLETHYL]AMINO]ETHYL]-2(1H)-QUINOLINONE MONOHYDROCHLORIDE” (Chiesi Farmaceutici S.p.A., priority 2008, published 2009).

The series in a line: Stability studies: storage at room temperature under different relative humidity conditions, checked by XRPD pattern. The series is classed as physicochemical. As to conditions: 25° C., 40%, 60%, 80%, 30%, 40% RH, 1 week each. As for the experimental part: The XRPD analyses were carried out on a PANanalytical X'pert Pro X-ray powder diffractometer using Cu Kα radiation. The instrument was equipped with a X'Celerator detector. A theta-two theta continuous scan from 2.5 degrees 2 theta to 40 degrees 2 theta was used. Each sample is prepared for analysis by placing it in a quartz sample holder. The XPRD patterns are reported in terms of degrees 2 theta (°2θ, accuracy ±0.1°), diffraction peak intensity (height, [cts]), full width at half maximum (FWHM, [°2θ]), interatomic spacing in angstroms (d-spacing, [Å]), and relative intensities (%). The relative intensity is recorded as the ratio of the peak intensity to that of the most intense peak.
In order to check its thermodynamic stability, the CHF 4226 crystal form E was stored at room temperature under different relative humidity (RH) conditions: • 40% RH. and 25° C. for 1 week • 60% RH. and 25° C. for 1 week • 80% RH and 25° C. for 1 week • 60% RH and 25° C. for 1 week • 40% RH and 25° C. for 1 week • 30% RH and 25° C. for 1 week • 40% RH and 25° C. for 1 week. The thermodynamic stability of all the samples was checked by recording their XPRD pattern.

The structures appear in SMILES notation.

`COc1ccc(C[C@@H](C)NC[C@H](O)c2ccc(O)c3[nH]c(=O)ccc23)cc1.Cl` [CHF 4226 crystal form E, 8-hydroxy-5-[(1R)-1-hydroxy-2-[[(1R)-2-(4-methoxyphenyl)-1-methylethyl]amino]ethyl]-2(1H)-quinolinone monohydrochloride]: the “thermodynamic stability (XPRD pattern) after storage” value is “stable features under all stability screening conditions”.
